The source of these data is patent US7166598B2, “Piperazine derivatives” (Astellas Pharma Inc., priority 1998, dated 2007).

SMILES strings stand for the structures.

The first data set relates to Emesis in the dog. In words: Emesis in the dog (apomorphine-induced retching and vomiting). In kind it is in vivo. Conditions: dose of 0.32 mg/kg i.v., 5 min before subcutaneous apomorphine (0.1 mg/0.5 ml/kg), observed for 60 min. The protocol:
Individually housed adult female dogs (8 to 15 kg) were given an i.v. injection of a solution containing a test compound. 5 Min later the emetic responses (retching and vomiting) were induced by administration of subcutaneous apomorphine (0.1 mg/0.5 ml/kg) and observed for the next 60 min. The timing and number of retches and vomits observed were recorded for each animal. An individual animal was tested with at least 10 days between experiments.
For `Cc1ccc(CC2CN(CCN3C[C@@H](C)O[C@@H](C)C3)CCN2C(=O)c2cc(C(F)(F)F)cc(C(F)(F)F)c2)cc1O.Cl.Cl` (relative stereo) [Example 4-(1), 1-[3,5-Bis(trifluoromethyl)benzoyl]-4-[2-(cis-2,6-dimethylmorpholino)ethyl]-2-(3-hydroxy-4-methylbenzyl)piperazine dihydrochloride], the “inhibition rate of emesis in the dog” value was 100%.

System in another data set: not given
Assay: not given
Details: not given
For `Cc1ccc(CC2CN(CCN3C[C@@H](C)O[C@@H](C)C3)CCN2C(=O)c2cc(C(F)(F)F)cc(C(F)(F)F)c2)cc1O.Cl.Cl` (relative stereo) [Example 4-(1), 1-[3,5-Bis(trifluoromethyl)benzoyl]-4-[2-(cis-2,6-dimethylmorpholino)ethyl]-2-(3-hydroxy-4-methylbenzyl)piperazine dihydrochloride], the melting point – broadly, the temperature of the solid-liquid transition – lay within 188 to 200 °C. The same measure, in the same setting: as for `Cl.Cl.O=C(c1cc(C(F)(F)F)cc(C(F)(F)F)c1)N1CCN(CCN2C[C@H](O)[C@@H](O)C2)C[C@H]1Cc1ccc(C(F)(F)F)cc1`, the figure is 154 to 159 °C. As to `COC[C@@H]1CN(CCN2CCN(C(=O)c3cc(C(F)(F)F)cc(C(F)(F)F)c3)[C@H](Cc3ccc(F)c(OC)c3)C2)CCO1.Cl.Cl`, the melting point was 180 to 190 °C. On the same count and under the same terms, the value for `COC[C@@H]1CN(C/C=C/CN2CCN(C(=O)c3cc(C(F)(F)F)cc(C(F)(F)F)c3)[C@H](Cc3ccc(C)c(O)c3)C2)CCO1.Cl.Cl` was 50 to 70 °C; that for `C[C@@H]1CN(CCN2CCN(C(=O)c3cc(-c4ccncc4)cc(C(F)(F)F)c3)[C@H](Cc3ccc(C(F)(F)F)cc3)C2)C[C@H](C)O1.Cl.Cl.Cl` was 135 to 145 °C. The molecule `COC[C@@H]1CN(CCN2CCN(C(=O)c3cc(C(F)(F)F)cc(C(F)(F)F)c3)[C@H](Cc3ccc(C)c(O)c3)C2)CCO1.Cl.Cl` [Example 13] showed a melting point of 206 to 224.5 °C. Still for that read-out and setting: the value for `COC[C@@H]1CN(CCN2CCN(C(=O)c3cc(C(F)(F)F)cc(S(=O)(=O)N4CCCC4)c3)[C@H](Cc3ccc(C)c(O)c3)C2)CCO1.Cl.Cl` was 125 to 177 °C. On the same count and under the same terms, as for `Cl.Cl.O=C(c1cc(C(F)(F)F)cc(C(F)(F)F)c1)N1CCN(Cc2cccnc2)C[C@H]1Cc1ccc(F)cc1`, the figure is 130 to 137.3 °C. Still for that read-out and setting: the value for `Cc1ccc(CC2CN(CC#Cc3cccnc3)CCN2C(=O)c2cc(C(F)(F)F)cc(C(F)(F)F)c2)cc1O.Cl.Cl` (stereo not shown) [Example 7, 1-[3,5-bis(trifluoromethyl)benzoyl]-2-(3-hydroxy-4-methylbenzyl)-4-[3-(3-pyridyl)-2-propynyl]piperazine dihydrochloride] was 180 to 190 °C; that for `COC[C@@H]1CN(CCN2CCN(C(=O)c3cc(OC)cc(C(F)(F)F)c3)[C@H](Cc3ccc(F)cc3)C2)CCO1.Cl.Cl` was 109.5 to 119.2 °C; that for `C[C@@H]1CN(CCN2CCN(C(=O)c3cc(C(F)(F)F)cc(C(F)(F)F)c3)[C@H](Cc3ccc(Cl)cc3)C2)C[C@H](C)O1.Cl.Cl` was 150 to 175 °C (dec.). `COC[C@H]1CN(CCN2CCN(C(=O)c3cc(OC)cc(C(F)(F)F)c3)[C@H](Cc3c[nH]c4ccccc34)C2)CCO1.Cl.Cl` displayed a melting point of 200 to 210 °C.

Take `COC[C@H]1CN(CCN2CCN(C(=O)c3cc(C(F)(F)F)cc(C(F)(F)F)c3)[C@H](Cc3ccc(Cl)c(O)c3)C2)CCO1.Cl.Cl`: the melting point was in the range of 204 to 214 °C. Still for that read-out and setting: the value for `CN(C)c1cc(C(=O)N2CCN(CCN3CCc4ncccc4C3)C[C@H]2Cc2ccc(Cl)cc2)cc(C(F)(F)F)c1.Cl.Cl.Cl` was 209 to 214 °C. Regarding `COC[C@@H]1C[C@H](COC)CN(CCN2CCN(C(=O)c3cc(C(F)(F)F)cc(C(F)(F)F)c3)[C@H](Cc3ccc(C(F)(F)F)cc3)C2)C1.Cl.Cl`, the melting point is 157 to 160 °C. On the same count and under the same terms, as for `CN(C)S(=O)(=O)c1cc(C(=O)N2CCN(CCN3CCc4ncccc4C3)C[C@H]2Cc2ccc(C(F)(F)F)cc2)cc(C(F)(F)F)c1.Cl.Cl.Cl`, the figure is 190 to 194 °C.

Molecule `COc1cc(C(=O)N2CCN(CCN3C[C@@H](C)O[C@@H](C)C3)C[C@H]2Cc2ccc(Cl)c(O)c2)cc(C(F)(F)F)c1.Cl.Cl` yielded a melting point of 177 to 182 °C.

The molecule `COc1cc(C[C@@H]2CN(CCN3CCC(F)(F)CC3)CCN2C(=O)c2cc(C(F)(F)F)cc(C(F)(F)F)c2)ccc1F.Cl.Cl` came in with a melting point of 240 to 243 °C.

`COC[C@@H]1CN(CCN2CCN(C(=O)c3cc(Cl)cc(C(F)(F)F)c3)[C@H](Cc3ccc(C(F)(F)F)cc3)C2)CCO1.Cl.Cl` yielded a melting point of 168 to 173 °C. Take `COC[C@@H]1C[C@@H](OC)CN1CCN1CCN(C(=O)c2cc(C(F)(F)F)cc(C(F)(F)F)c2)[C@H](Cc2ccc(F)c(OC)c2)C1.Cl.Cl`: the melting point is 128 to 134 °C. Still for that read-out and setting: the value for `CNc1cc(C(=O)N2CCN(CCN3CCO[C@H](COC)C3)C[C@H]2Cc2ccc(C)c(O)c2)cc(C(F)(F)F)c1.Cl.Cl` was 159 to 170 °C; that for `Cl.Cn1cc(CN2CCN(C(=O)c3cc(C(F)(F)F)cc(C(F)(F)F)c3)[C@H](Cc3ccc(F)cc3)C2)cn1` was 143.3 to 146.4 °C. Still for that read-out and setting: the value for `Cc1ccc(C[C@@H]2CN(Cc3nc(N)no3)CCN2C(=O)c2cc(C(F)(F)F)cc(C(F)(F)F)c2)cc1O.Cl.Cl` was 160 to 170 °C; that for `COC[C@@H]1CN(CCN2CCN(C(=O)c3cc(-c4ccncc4)cc(C(F)(F)F)c3)[C@H](Cc3ccc(C)c(O)c3)C2)CCO1.Cl.Cl.Cl` was 169 to 173 °C.

`Cl.Cl.O=C(c1cc(C(F)(F)F)cc(C(F)(F)F)c1)N1CCN(CCN2CCC(F)(F)CC2)C[C@H]1Cc1ccc2ccccc2c1` showed a melting point of over 250 °C. Still for that read-out and setting: as for `COC[C@@H]1CN(CCN2CCN(C(=O)c3cc(OC)cc(C(F)(F)F)c3)[C@H](Cc3ccc(Cl)c(O)c3)C2)CCO1.Cl.Cl`, the figure is 160 to 168 °C; as for `Cl.Cl.Cl.O=C(c1cc(Cl)cc(C(F)(F)F)c1)N1CCN(CCN2CCc3ncccc3C2)C[C@H]1Cc1ccc(Cl)c(O)c1`, 200 to 204 °C.

For `Cl.Cl.O=C(c1cc(C(F)(F)F)cc(C(F)(F)F)c1)N1CCN(Cc2cccnc2)C[C@H]1Cc1ccc(C(F)(F)F)cc1`, the melting point lay in the range of 198 to 223 °C. Still for that read-out and setting: the value for `C[C@@H]1CN(CCN2CCN(C(=O)c3cc(N(C)C)cc(C(F)(F)F)c3)[C@H](Cc3ccc(Cl)cc3)C2)C[C@H](C)O1.Cl.Cl` was 148.2 to 153.3 °C; that for `Cl.Cl.O=C(c1cc(C(F)(F)F)cc(C(F)(F)F)c1)N1CCN(CCCc2cccnc2)C[C@H]1Cc1ccc(F)cc1` was 110.2 to 117.5 °C.

Regarding `COc1cc(C(=O)N2CCN(Cc3cccnc3)C[C@H]2Cc2ccc(Cl)cc2)cc(C(F)(F)F)c1.Cl.Cl`, the melting point was 60 to 80 °C. Molecule `COC[C@@H]1CN(CCN2CCN(C(=O)c3cc(SC)cc(C(F)(F)F)c3)[C@H](Cc3ccc(C)c(O)c3)C2)CCO1.Cl.Cl` yielded a melting point of 154 to 168 °C.

For the molecule `C[C@@H]1CN(CCN2CCN(C(=O)c3cc(C(F)(F)F)cc(S(C)(=O)=O)c3)[C@H](Cc3ccc(Cl)cc3)C2)C[C@H](C)O1.Cl.Cl`, the melting point was 138.4 to 142.5 °C.
